# Assay results as given in paper PMC6222424, “Hits-to-Lead Optimization of the Natural Compound 2,4,6-Trihydroxy-3-geranyl-acetophenone (tHGA) as a Potent LOX Inhibitor: Synthesis, Structure-Activity Relationship (SAR) Study, and Computational Assignment” (Molecules : A Journal of Synthetic Chemistry and Natural …, 2018).
# Tested on: not given
# Experiment: not given
# Settings: not given
row,melting point [°C],Structure (SMILES)
1,116 to 118,"CCCC(=O)c1c(O)cc(O)c(C/C=C(\C)CCC=C(C)C)c1O [Compound 3d, (E)-1-(3-(3,7-dimethylocta-2,6-dienyl)-2,4,6-trihydroxyphenyl)butan-1-one]"
2,138 to 140,"CCC(=O)c1c(O)cc(O)c(CC=C(C)C)c1O [Compound 4c, 1-(2,4,6-trihydroxy-3-(3-methylbut-2-enyl)phenyl)propan-1-one]"
3,133 to 135,"CCCCC(=O)c1c(O)cc(O)c(CC=C(C)C)c1O [Compound 4e, 1-(2,4,6-trihydroxy-3-(3-methylbut-2-enyl)phenyl)pentan-1-one]"
4,203 to 205,"CC(C)=CCc1c(O)cc(O)c(C(=O)/C=C/c2ccccc2)c1O [Compound 4g, (E)-3-phenyl-1-(2,4,6-trihydroxy-3-(3-methylbut-2-enyl)phenyl)prop-2-en-1-one]"

row,Structure (SMILES),melting point [°C]
1,"COc1cc(OC)c(C(C)=O)c(O)c1C/C=C(\C)CCC=C(C)C [Compound 5a, (E)-1-(3-(3,7-dimethylocta-2,6-dienyl)-2-hydroxy-4,6-dimethoxyphenyl)ethanone]",72 to 74
2,"COc1cc(OC)c(C(C)=O)c(O)c1CC=C(C)C [Compound 6a, 1-(2-hydroxy-4,6-dimethoxy-3-(3-methylbut-2-enyl)phenyl)ethanone]",97 to 99
3,"CCCCC(=O)c1c(OC)cc(OC)c(CC=C(C)C)c1O [Compound 6e, 1-(2-hydroxy-4,6-dimethoxy-3-(3-methylbut-2-enyl)phenyl)pentan-1-one]",84 to 86

# Molecular target: T1, soybean LOX-1 (Glycine max, UniProt P08170)
# T1 sequence (P08170 1-839): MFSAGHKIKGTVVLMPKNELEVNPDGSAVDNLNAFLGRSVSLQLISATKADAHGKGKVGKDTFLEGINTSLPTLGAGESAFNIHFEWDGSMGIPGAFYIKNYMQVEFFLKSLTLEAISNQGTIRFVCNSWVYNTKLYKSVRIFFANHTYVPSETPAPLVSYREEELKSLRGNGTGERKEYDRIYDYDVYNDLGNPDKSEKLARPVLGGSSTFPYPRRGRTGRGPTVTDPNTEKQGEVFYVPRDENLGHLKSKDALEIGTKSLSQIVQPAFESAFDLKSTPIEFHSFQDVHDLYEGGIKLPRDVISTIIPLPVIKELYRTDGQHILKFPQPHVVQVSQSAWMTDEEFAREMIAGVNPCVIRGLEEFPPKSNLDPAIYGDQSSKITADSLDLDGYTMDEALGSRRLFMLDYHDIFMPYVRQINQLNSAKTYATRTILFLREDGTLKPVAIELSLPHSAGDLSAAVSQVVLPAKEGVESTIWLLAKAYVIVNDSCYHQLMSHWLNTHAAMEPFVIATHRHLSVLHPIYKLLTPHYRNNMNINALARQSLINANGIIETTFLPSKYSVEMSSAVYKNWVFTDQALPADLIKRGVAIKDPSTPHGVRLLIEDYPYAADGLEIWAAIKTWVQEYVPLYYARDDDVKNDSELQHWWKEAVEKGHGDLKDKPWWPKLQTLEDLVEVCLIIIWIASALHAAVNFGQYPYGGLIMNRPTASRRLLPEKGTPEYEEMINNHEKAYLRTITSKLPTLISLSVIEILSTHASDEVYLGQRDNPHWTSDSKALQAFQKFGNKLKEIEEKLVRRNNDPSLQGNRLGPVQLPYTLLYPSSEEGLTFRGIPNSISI
# Experiment: Enzyme kinetics study (Michaelis–Menten, Lineweaver–Burk)
# Assay type: biochemical
# Design: purchased
# Settings: Lineweaver–Burk plot
# Description: Since compounds 3e and tHGA (3a) are competitive inhibitors, there were no changes in maximal velocity.
# Kinetics study: Enzyme kinetics was performed similar to the above inhibition assay with slight modification. […] About 10 μL each of 4 linoleic acid substrate concentrations (0.2, 0.3, 0.4, and 0.5 mM) was added to initiate the enzymatic conversion. End product of the reaction was measured at 234 nm over a period of 10 min, with readings taken every 30 s. The type of inhibition (competitive, uncompetitive, noncompetitive) was determined by nonlinear regression Michaelis–Menten enzyme kinetics and the corresponding Lineweaver–Burk plots using 3 concentrations of each inhibitor: 0, 1.57, and 3.13 μg/mL. All experiments were performed in triplicate and the average values and standard errors were plotted. The Km and Vmax values were calculated from the nonlinear regression fitting curve of GraphPad Prism 5.
row,type of inhibition,Structure (SMILES)
1,competitive,"CC(=O)c1c(O)cc(O)c(C/C=C(\C)CCC=C(C)C)c1O [Compound 3a, 2,4,6-Trihydroxy-3-geranylacetophenone]"
2,competitive,"CCCCC(=O)c1c(O)cc(O)c(C/C=C(\C)CCC=C(C)C)c1O [Compound 3e, (E)-1-(3-(3,7-dimethylocta-2,6-dienyl)-2,4,6-trihydroxyphenyl)pentan-1-one]"

# Same assay, conditions: from slope of Lineweaver–Burk plot vs inhibitor concentration; read-out: Ki (inhibitor constant)
row,Ki [µM],Structure (SMILES)
1,41.1,"CC(=O)c1c(O)cc(O)c(C/C=C(\C)CCC=C(C)C)c1O [Compound 3a, 2,4,6-Trihydroxy-3-geranylacetophenone]"
2,36.1,"CCCCC(=O)c1c(O)cc(O)c(C/C=C(\C)CCC=C(C)C)c1O [Compound 3e, (E)-1-(3-(3,7-dimethylocta-2,6-dienyl)-2,4,6-trihydroxyphenyl)pentan-1-one]"

# Molecular target: T1, soybean LOX-1
# Experiment: In vitro soybean 15-lipoxygenase (LOX) inhibition assay
# Settings: not given
# Description: Briefly, sodium phosphate buffer (160 μL, 100 mM, pH 8.0), test sample (10 μL), and soybean 15-LOX (1.13.11.12) type I-B solution (20 μL, 320 U/well) were mixed and incubated at room temperature for 15 min. The substrate linoleic acid (10 μL, 0.6 mM) solution was added to initiate the reaction. End product from the enzymatic conversion was measured at absorbance of 234 nm over a period of 6 min and the assay was performed in triplicate. Dimethyl sulfoxide (DMSO) was used as a solvent to dissolve test samples and reference standard. […] IC50 values were calculated by the nonlinear regression fitting curve of GraphPad Prism 5. The percentage of inhibition can be calculated by the following formula [10, 11]: Inhibitory% = ODcontrol−ODsample/ODcontrol
row,IC50 [µM],Structure (SMILES)
1,15.3 ± 0.5,"CCCC(=O)c1c(O)cc(O)c(C/C=C(\C)CCC=C(C)C)c1O [Compound 3d, (E)-1-(3-(3,7-dimethylocta-2,6-dienyl)-2,4,6-trihydroxyphenyl)butan-1-one]"
2,72.1 ± 1.2,"CC(=O)c1c(O)cc(O)c(CC=C(C)C)c1O [Compound 4a, 1-(2,4,6-trihydroxy-3-(3-methylbut-2-enyl)phenyl)ethanone]"
3,61 ± 1.1,"CCC(=O)c1c(O)cc(O)c(CC=C(C)C)c1O [Compound 4c, 1-(2,4,6-trihydroxy-3-(3-methylbut-2-enyl)phenyl)propan-1-one]"
4,35.1 ± 1.3,"CCCCC(=O)c1c(O)cc(O)c(CC=C(C)C)c1O [Compound 4e, 1-(2,4,6-trihydroxy-3-(3-methylbut-2-enyl)phenyl)pentan-1-one]"
5,52.6 ± 1,"CC(C)=CCc1c(O)cc(O)c(C(=O)C2CCCCC2)c1O [Compound 4f, Cyclohexyl(2,4,6-trihydroxy-3-(3-methylbut-2-enyl)phenyl)methanone]"
6,95.4 ± 4,"CC(C)=CCc1c(O)cc(O)c(C(=O)/C=C/c2ccccc2)c1O [Compound 4g, (E)-3-phenyl-1-(2,4,6-trihydroxy-3-(3-methylbut-2-enyl)phenyl)prop-2-en-1-one]"

row,Structure (SMILES),IC50 [µM]
1,"CC(C)=CCc1c(O)cc(O)c(C(=O)C(C)C)c1O [Compound 4b, 2-methyl-1-(2,4,6-trihydroxy-3-(3-methylbut-2 enyl)phenyl)propan-1-one]",53.7 ± 0.7
2,"CCCC(=O)c1c(O)cc(O)c(CC=C(C)C)c1O [Compound 4d, 1-(2,4,6-trihydroxy-3-(3-methylbut-2-enyl)phenyl)butan-1-one]",39.5 ± 1.2

# Same assay, conditions: IC50 compared with NDGA
row,fold less active than the standard drug NDGA [fold],Structure (SMILES)
1,100,"CCCCC(=O)c1c(O)cc(O)c(C/C=C(\C)CCC=C(C)C)c1O [Compound 3e, (E)-1-(3-(3,7-dimethylocta-2,6-dienyl)-2,4,6-trihydroxyphenyl)pentan-1-one]"

# Same assay, conditions: assay could not be carried out
row,Structure (SMILES),solubility of the compound in the 15-LOX assay
1,"COc1cc(OC)c(C(C)=O)c(O)c1C/C=C(\C)CCC=C(C)C [Compound 5a, (E)-1-(3-(3,7-dimethylocta-2,6-dienyl)-2-hydroxy-4,6-dimethoxyphenyl)ethanone]",insolubility
2,"CCCCC(=O)c1c(OC)cc(OC)c(C/C=C(\C)CCC=C(C)C)c1O [Compound 5e, (E)-1-(3-(3,7-dimethylocta-2,6-dienyl)-2-hydroxy-4,6-dimethoxyphenyl)pentan-1-one]",insolubility
3,"COc1cc(OC)c(C(C)=O)c(O)c1CC=C(C)C [Compound 6a, 1-(2-hydroxy-4,6-dimethoxy-3-(3-methylbut-2-enyl)phenyl)ethanone]",insolubility
4,"CCCCC(=O)c1c(OC)cc(OC)c(CC=C(C)C)c1O [Compound 6e, 1-(2-hydroxy-4,6-dimethoxy-3-(3-methylbut-2-enyl)phenyl)pentan-1-one]",insolubility

# Same assay, conditions: read-out: % Inhibition (100 μg/mL)
row,inhibition at 100 µg/mL [%],Structure (SMILES)
1,90.7 ± 5,"CCCC(=O)c1c(O)cc(O)c(C/C=C(\C)CCC=C(C)C)c1O [Compound 3d, (E)-1-(3-(3,7-dimethylocta-2,6-dienyl)-2,4,6-trihydroxyphenyl)butan-1-one]"
2,94.8 ± 5.2,"CC(=O)c1c(O)cc(O)c(CC=C(C)C)c1O [Compound 4a, 1-(2,4,6-trihydroxy-3-(3-methylbut-2-enyl)phenyl)ethanone]"
3,78.1 ± 3.9,"CCC(=O)c1c(O)cc(O)c(CC=C(C)C)c1O [Compound 4c, 1-(2,4,6-trihydroxy-3-(3-methylbut-2-enyl)phenyl)propan-1-one]"
4,79.4 ± 6.7,"CCCCC(=O)c1c(O)cc(O)c(CC=C(C)C)c1O [Compound 4e, 1-(2,4,6-trihydroxy-3-(3-methylbut-2-enyl)phenyl)pentan-1-one]"
5,93.7 ± 3.8,"CC(C)=CCc1c(O)cc(O)c(C(=O)C2CCCCC2)c1O [Compound 4f, Cyclohexyl(2,4,6-trihydroxy-3-(3-methylbut-2-enyl)phenyl)methanone]"
6,95.2 ± 3.2,"CC(C)=CCc1c(O)cc(O)c(C(=O)/C=C/c2ccccc2)c1O [Compound 4g, (E)-3-phenyl-1-(2,4,6-trihydroxy-3-(3-methylbut-2-enyl)phenyl)prop-2-en-1-one]"

row,Structure (SMILES),inhibition at 100 µg/mL [%]
1,"CC(C)=CCc1c(O)cc(O)c(C(=O)C(C)C)c1O [Compound 4b, 2-methyl-1-(2,4,6-trihydroxy-3-(3-methylbut-2 enyl)phenyl)propan-1-one]",82.5 ± 7.3
2,"CCCC(=O)c1c(O)cc(O)c(CC=C(C)C)c1O [Compound 4d, 1-(2,4,6-trihydroxy-3-(3-methylbut-2-enyl)phenyl)butan-1-one]",86.2 ± 6.9

# Tested on: allergic airway inflammation
# Experiment: not given
# Design: method as in PMID 22266348
# Settings: acute murine model; compared with Zileuton; cited from earlier work
row,Structure (SMILES),prevention of allergic airway inflammation
1,"CC(=O)c1c(O)cc(O)c(C/C=C(\C)CCC=C(C)C)c1O [Compound 3a, 2,4,6-Trihydroxy-3-geranylacetophenone]",as effective as Zileuton

# Molecular target: T1, soybean LOX-1
# Experiment: not given
# Design: purchased; method as in PMID 25100256
# Settings: data published in previous work; listed as 3a (tHGA); read-out: IC50 Value (μM) Mean ± SEM; cited from earlier work
row,Structure (SMILES),IC50 [µM]
1,"CC(=O)c1c(O)cc(O)c(C/C=C(\C)CCC=C(C)C)c1O [Compound 3a, 2,4,6-Trihydroxy-3-geranylacetophenone]",23.6 ± 1.7

# Same assay, conditions: data published in previous work; read-out: IC50 Value (μM) Mean ± SEM; cited from earlier work
row,Structure (SMILES),IC50 [µM]
1,CC(C)=CCC/C(C)=C/Cc1c(O)cc(O)c(C(=O)C(C)C)c1O [Compound 3b],27.6 ± 3.6
2,"CCC(=O)c1c(O)cc(O)c(C/C=C(\C)CCC=C(C)C)c1O [Compound 3c, (E)-1-(3-(3,7-dimethylocta-2,6-dienyl)-2,4,6-trihydroxyphenyl)propan-1-one]",12.3 ± 0.6
3,"CCCCC(=O)c1c(O)cc(O)c(C/C=C(\C)CCC=C(C)C)c1O [Compound 3e, (E)-1-(3-(3,7-dimethylocta-2,6-dienyl)-2,4,6-trihydroxyphenyl)pentan-1-one]",10.3
4,CC(C)=CCC/C(C)=C/Cc1c(O)cc(O)c(C(=O)C2CCCCC2)c1O [Compound 3f],26.3 ± 1.3
